Measurements published in article PMC10094639, “Novel Antibiotic Resistance Genes Identified by Functional Gene Library Screening in Stenotrophomonas maltophilia and Chryseobacterium spp. Bacteria of Soil Origin” (International Journal of Molecular Sciences, 2023).
In brackets after ≈: the same amount, converted by molar mass.

Key:
[1] = tested on: S. maltophilia; assay: microbe, parasite or virus in culture; design: Broth microdilution MIC (Sensititre plates, ARIS 2X) against soil bacterial isolates; conditions: Stenotrophomonas maltophilia
Description: (§1) Six Stenotrophomonas maltophilia and eight Chryseobacterium spp. antibiotic-resistant isolates were used for genomic library construction; all bacteria were isolated from farming field soil in Lithuania during the year 2016 [17, 65]. The isolates were designated as resistant if the MIC of antibiotic value matched EUCAST clinical breakpoints (v. 7.0, 2017, PK/PD (non-species related). Species were identified by matching obtained sequences with a sequence showing the highest maximum identity score from the GenBank database. If the identity of the best match was <99% and the query cover was <96%, only the genus was assigned. All environmental isolates were grown in LB medium at 28 °C. The bacteria were isolated from three farming fields in Lithuania during the year 2016 [17]. The sample collection points represented two different types of farming, i.e., organic and conventional (intensive); in all cases, the type of the soil was sandy loam. The organic farming sites were known not to use inorganic fertilizers or pesticides for a time period of over 20 years and were fertilized only with organic fertilizers (farmyard manure and slurry). Identification of bacterial isolates was based on 16S rRNA fragment sequencing as described previously. All six isolates of S. maltophilia were collected from a conventional winter wheat farming field. Antibiotic-resistant Chryseobacterium spp. isolates were recovered from various fields (conventional winter wheat, conventional rapeseed, and organic rapeseed). Two of the isolates were identified as C. aahli, and another two were identified as C. soldanellicola; for four of the isolates, only the genus could be assigned as Chryseobacterium spp. All selected isolates of S. maltophilia and Chryseobacterium spp. were resistant to at least two classes of antibiotics (β-lactams, aminoglycosides, and/or fluoroquinolones) (Table S1).

[2] = tested on: C. soldanellicola; assay: organism not typed; design: Broth microdilution MIC (Sensititre plates, ARIS 2X) against soil bacterial isolates; conditions: soil
Description: as §1

[3] = tested on: C. aahli; assay: organism not typed; design: Broth microdilution MIC (Sensititre plates, ARIS 2X) against soil bacterial isolates; conditions: soil
Description: as §1

[4] = tested on: Chryseobacterium sp.; assay: microbe, parasite or virus in culture; design: Broth microdilution MIC (Sensititre plates, ARIS 2X) against soil bacterial isolates; conditions: Chryseobacterium
Description: as §1

[5] = tested on: T1, IND-17; assay: UV-Vis spectrophotometry, initial hydrolysis rates, […] nm; assay type: biochemical, Chryseobacterium sp.; conditions: 50 mM HEPES pH 7.0, 50 µM ZnCl2, 22 °C
T1 construct: signal peptide removed; pET-28b (NcoI) in E. coli BL21 Tuner (DE3); no tag mentioned

[6] = tested on: T1, IND-17; assay: as above; assay type: biochemical, Chryseobacterium sp.; conditions: 50 mM HEPES pH 7.0, 50 µM ZnCl2, 22 °C; remark: listed apart in the source
[7] = tested on: T2, CHM; assay: as above; assay type: biochemical, Chryseobacterium sp.; conditions: 50 mM HEPES pH 7.0, 50 µM ZnCl2, 22 °C
T2 construct: signal peptide removed; pET-28b (NcoI) in E. coli BL21 Tuner (DE3); no tag mentioned

[8] = tested on: T2, CHM; assay: as above; assay type: biochemical, Chryseobacterium sp.; conditions: 50 mM HEPES pH 7.0, 50 µM ZnCl2, 22 °C; remark: listed apart in the source
[9] = tested on: T1, IND-17; assay: as above; assay type: biochemical, Chryseobacterium sp.; conditions: 50 mM HEPES pH 7.0, 50 µM ZnCl2, 22 °C; remark: listed apart in the source
[10] = tested on: T2, CHM; assay: as above; assay type: biochemical, Chryseobacterium sp.; conditions: 50 mM HEPES pH 7.0, 50 µM ZnCl2, 22 °C; remark: listed apart in the source
[11] = tested on: T1, IND-17; assay: as above; assay type: biochemical, Chryseobacterium sp.; conditions: 50 mM HEPES pH 7.0, 50 µM ZnCl2, 22 °C; remark: listed apart in the source
[12] = tested on: T1, IND-17; assay: as above; assay type: biochemical, Chryseobacterium sp.; conditions: 50 mM HEPES pH 7.0, 50 µM ZnCl2, 22 °C; remark: listed apart in the source
[13] = tested on: T2, CHM; assay: as above; assay type: biochemical, Chryseobacterium sp.; conditions: 50 mM HEPES pH 7.0, 50 µM ZnCl2, 22 °C; remark: listed apart in the source

Compound | MIC ([1]; Isolate No.=2-1-3) | MIC ([1]; Isolate No.=2-4-11) | MIC ([2]; Isolate No.=3-7-16) | MIC ([2]; Isolate No.=4-6-16) | MIC ([3]; Isolate No.=3-7-14) | MIC ([3]; Isolate No.=3-12-27) | MIC ([4]; Isolate No.=2-2-6) | MIC ([1]; Isolate No.=2-12-28) | MIC ([4]; Isolate No.=2-4-10) | further results
NCC[C@H](O)C(=O)N[C@@H]1C[C@H](N)[C@@H](O[C@H]2O[C@H](CN)[C@@H](O)[C@H](O)[C@H]2O)[C@H](O)[C@H]1O[C@H]1O[C@H](CO)[C@@H](O)[C@H](N)[C@H]1O [Amikacin] | ≤ 8 µg/mL | 16 µg/mL (≈ 27.3 µM) | 32 µg/mL (≈ 54.6 µM) | ≤ 8 µg/mL | 32 µg/mL (≈ 54.6 µM) | ≤ 8 µg/mL | ≤ 8 µg/mL |  |  | MIC ([1]; Isolate No.=2-8-21): 32 µg/mL (≈ 54.6 µM); MIC ([4]; Isolate No.=2-6-15): 32 µg/mL (≈ 54.6 µM)
CC1(C)S[C@@H]2[C@H](NC(=O)[C@H](N)c3ccccc3)C(=O)N2[C@H]1C(=O)O [Ampicillin] |  |  |  |  |  |  |  |  |  | Km [5]: 470 ± 108 µM
C[C@H]1[C@H](NC(=O)/C(=N\OC(C)(C)C(=O)O)c2csc(N)n2)C(=O)N1S(=O)(=O)O [Aztreonam] | 16 µg/mL (≈ 36.7 µM) | ≤ 8 µg/mL | 32 µg/mL (≈ 73.5 µM) | > 32 µg/mL | 32 µg/mL (≈ 73.5 µM) |  | > 32 µg/mL | 32 µg/mL (≈ 73.5 µM) |  | 
Cc1nnc(SCC2=C(C(=O)O)N3C(=O)[C@@H](NC(=O)Cn4cnnn4)[C@H]3SC2)s1 [Cefazolin] | 32 µg/mL (≈ 70.4 µM) | > 32 µg/mL | 32 µg/mL (≈ 70.4 µM) | > 32 µg/mL | 32 µg/mL (≈ 70.4 µM) |  | > 32 µg/mL |  |  | Km [6]: 38 ± 12 µM; Km [7]: 167 ± 27 µM
CO/N=C(\C(=O)N[C@@H]1C(=O)N2C(C(=O)[O-])=C(C[N+]3(C)CCCC3)CS[C@H]12)c1csc(N)n1 [Cefepime] | ≤ 4 µg/mL |  | ≤ 4 µg/mL |  | 8 µg/mL (≈ 16.6 µM) | ≤ 4 µg/mL | ≤ 4 µg/mL | > 32 µg/mL |  | MIC ([1]; Isolate No.=2-12-31): 16 µg/mL (≈ 33.3 µM)
CO[C@@]1(NC(=O)C2SC(=C(C(N)=O)C(=O)O)S2)C(=O)N2C(C(=O)O)=C(CSc3nnnn3C)CS[C@@H]21 (some centres unmarked) [Cefotetan Na] | 4 µg/mL (≈ 6.95 µM) | ≤ 8 µg/mL | 32 µg/mL (≈ 55.6 µM) | > 32 µg/mL | 32 µg/mL (≈ 55.6 µM) |  | > 32 µg/mL |  |  | 
CO[C@@]1(NC(=O)Cc2cccs2)C(=O)N2C(C(=O)O)=C(COC(N)=O)CS[C@@H]21 [Cefoxitin] | 32 µg/mL (≈ 74.9 µM) |  | 8 µg/mL (≈ 18.7 µM) | 16 µg/mL (≈ 37.4 µM) | 32 µg/mL (≈ 74.9 µM) |  | > 32 µg/mL | > 32 µg/mL | 32 µg/mL (≈ 74.9 µM) | MIC ([4]; Isolate No.=2-6-15): 16 µg/mL (≈ 37.4 µM)
COCC1=C(C(=O)O)N2C(=O)[C@@H](NC(=O)/C(=N\OC)c3csc(N)n3)[C@H]2SC1 [Cefpodoxime] | 16 µg/mL (≈ 37.4 µM) | > 16 µg/mL | 4 µg/mL (≈ 9.36 µM) | 8 µg/mL (≈ 18.7 µM) | 16 µg/mL (≈ 37.4 µM) |  | > 16 µg/mL |  |  | 
CC(C)(O/N=C(\C(=O)N[C@@H]1C(=O)N2C(C(=O)[O-])=C(C[n+]3ccccc3)CS[C@H]12)c1csc(N)n1)C(=O)O [Ceftazidime] | 4 µg/mL (≈ 7.32 µM) | 2 µg/mL (≈ 3.66 µM) | ≤ 1 µg/mL |  | 8 µg/mL (≈ 14.6 µM) | 4 µg/mL (≈ 7.32 µM) | 2 µg/mL (≈ 3.66 µM) | 8 µg/mL (≈ 14.6 µM) | 4 µg/mL (≈ 7.32 µM) | Km [7]: 200 ± 41 µM
CO/N=C(\C(=O)N[C@@H]1C(=O)N2C(C(=O)O)=C(CSc3nc(=O)c(O)nn3C)CS[C@H]12)c1csc(N)n1 [Ceftriaxone] | 32 µg/mL (≈ 57.7 µM) |  | 4 µg/mL (≈ 7.21 µM) | 8 µg/mL (≈ 14.4 µM) | 64 µg/mL (≈ 115 µM) |  | > 64 µg/mL | > 64 µg/mL | 64 µg/mL (≈ 115 µM) | 
CO/N=C(\C(=O)N[C@@H]1C(=O)N2C(C(=O)O)=C(COC(N)=O)CS[C@H]12)c1ccco1 [Cefuroxime] | 32 µg/mL (≈ 75.4 µM) | > 32 µg/mL | 32 µg/mL (≈ 75.4 µM) |  | 32 µg/mL (≈ 75.4 µM) |  | > 32 µg/mL |  |  | Km [6]: 30 ± 5.8 µM; Km [7]: 76 ± 19 µM
O=C(O)c1cn(C2CC2)c2cc(N3CCNCC3)c(F)cc2c1=O [Ciprofloxacin] | 1 µg/mL (≈ 3.02 µM) |  | ≤ 0.5 µg/mL |  | 2 µg/mL (≈ 6.04 µM) | ≤ 0.5 µg/mL | ≤ 0.5 µg/mL | 2 µg/mL (≈ 6.04 µM) | 1 µg/mL (≈ 3.02 µM) | MIC ([1]; Isolate No.=2-8-21): ≤ 0.5 µg/mL
C[C@@H](O)[C@H]1C(=O)N2C(C(=O)O)=C(SCCN=CN)C[C@H]12 [Imipenem] | 16 µg/mL (≈ 53.4 µM) | > 16 µg/mL | 4 µg/mL (≈ 13.4 µM) |  | 16 µg/mL (≈ 53.4 µM) |  | 8 µg/mL (≈ 26.7 µM) |  | ≤ 2 µg/mL | MIC ([4]; Isolate No.=2-8-20): 4 µg/mL (≈ 13.4 µM); Km [8]: 389 ± 48 µM; Km [9]: 185 ± 19 µM
C[C@@H](O)[C@H]1C(=O)N2C(C(=O)O)=C(S[C@@H]3CN[C@H](C(=O)N(C)C)C3)[C@H](C)[C@H]12 [Meropenem] | ≤ 1 µg/mL | 2 µg/mL (≈ 5.22 µM) | 2 µg/mL (≈ 5.22 µM) | 4 µg/mL (≈ 10.4 µM) | 8 µg/mL (≈ 20.9 µM) |  | > 8 µg/mL | > 8 µg/mL |  | Km [10]: 10 ± 2 µM; Km [11]: 258 ± 25 µM
O=C(Cc1cccs1)N[C@@H]1C(=O)N2C(C(=O)O)=C(/C=C/c3ccc([N+](=O)[O-])cc3[N+](=O)[O-])CS[C@H]12 [Nitrocefin] |  |  |  |  |  |  |  |  |  | Km [12]: 152 ± 4.7 µM; Km [13]: 153 ± 10 µM
O=C1CN(/N=C/c2ccc([N+](=O)[O-])o2)C(=O)N1 [Nitrofurantoin] | 128 µg/mL (≈ 537 µM) | > 128 µg/mL | 64 µg/mL (≈ 269 µM) | ≤ 16 µg/mL | 128 µg/mL (≈ 537 µM) | 64 µg/mL (≈ 269 µM) | 64 µg/mL (≈ 269 µM) |  | 32 µg/mL (≈ 134 µM) | 
CCN1CCN(C(=O)N[C@@H](C(=O)N[C@@H]2C(=O)N3[C@@H]2SC(C)(C)[C@@H]3C(=O)O)c2ccccc2)C(=O)C1=O [Piperacillin] | 64 µg/mL (≈ 124 µM) | ≤ 16 µg/mL | ≤ 16 µg/mL |  | 32 µg/mL (≈ 61.8 µM) | ≤ 16 µg/mL | 32 µg/mL (≈ 61.8 µM) | 32 µg/mL (≈ 61.8 µM) | ≤ 16 µg/mL | MIC ([4]; Isolate No.=2-6-15): 128 µg/mL (≈ 247 µM)
NC[C@H]1O[C@H](O[C@H]2[C@H](O)[C@@H](O[C@H]3O[C@H](CO)[C@@H](O)[C@H](N)[C@H]3O)[C@H](N)C[C@@H]2N)[C@H](N)C[C@@H]1O [Tobramycin] | ≤ 4 µg/mL |  | 8 µg/mL (≈ 17.1 µM) |  | 8 µg/mL (≈ 17.1 µM) |  | > 8 µg/mL |  |  | MIC ([1]; Isolate No.=2-8-21): 8 µg/mL (≈ 17.1 µM)
